ChEMBL document CHEMBL1151872, “Antagonists of the human A(2A) receptor. Part 5: Highly bio-available pyrimidine-4-carboxamides” (Bioorg Med Chem Lett, 2009)
pEC50, pKi: −log10 of the molar value. Values after ≈ are worked out from the molar mass of the structure shown.

Tests used:
[1] = target: T1, Adenosine receptor A2b (Homo sapiens, UniProt P29275); assay: Binding affinity to adenosine A2B receptor
T1 sequence (P29275 whole entry): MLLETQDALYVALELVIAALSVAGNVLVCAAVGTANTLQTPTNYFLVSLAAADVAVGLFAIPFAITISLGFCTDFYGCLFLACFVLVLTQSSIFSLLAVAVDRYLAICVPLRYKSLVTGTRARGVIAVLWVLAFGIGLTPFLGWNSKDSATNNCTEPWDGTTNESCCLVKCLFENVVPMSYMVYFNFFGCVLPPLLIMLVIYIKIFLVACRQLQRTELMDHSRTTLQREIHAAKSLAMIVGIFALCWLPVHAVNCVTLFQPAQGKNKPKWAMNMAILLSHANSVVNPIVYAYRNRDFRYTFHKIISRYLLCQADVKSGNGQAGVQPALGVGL

[2] = target: T2, Adenosine receptor A3 (Homo sapiens, UniProt P0DMS8); assay: Binding affinity to adenosine A3 receptor
T2 sequence (P0DMS8 whole entry): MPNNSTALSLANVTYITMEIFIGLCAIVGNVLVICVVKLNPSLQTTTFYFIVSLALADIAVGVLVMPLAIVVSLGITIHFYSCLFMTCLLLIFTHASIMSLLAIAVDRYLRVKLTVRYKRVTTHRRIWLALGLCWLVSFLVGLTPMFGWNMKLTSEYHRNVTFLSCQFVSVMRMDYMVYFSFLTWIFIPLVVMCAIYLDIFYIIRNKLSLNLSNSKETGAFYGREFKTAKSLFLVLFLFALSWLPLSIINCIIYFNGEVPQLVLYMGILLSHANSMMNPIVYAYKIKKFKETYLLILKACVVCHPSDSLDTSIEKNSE

[3] = target: T3, Adenosine receptor A2a (Homo sapiens, UniProt P29274)
T3 sequence (P29274 whole entry): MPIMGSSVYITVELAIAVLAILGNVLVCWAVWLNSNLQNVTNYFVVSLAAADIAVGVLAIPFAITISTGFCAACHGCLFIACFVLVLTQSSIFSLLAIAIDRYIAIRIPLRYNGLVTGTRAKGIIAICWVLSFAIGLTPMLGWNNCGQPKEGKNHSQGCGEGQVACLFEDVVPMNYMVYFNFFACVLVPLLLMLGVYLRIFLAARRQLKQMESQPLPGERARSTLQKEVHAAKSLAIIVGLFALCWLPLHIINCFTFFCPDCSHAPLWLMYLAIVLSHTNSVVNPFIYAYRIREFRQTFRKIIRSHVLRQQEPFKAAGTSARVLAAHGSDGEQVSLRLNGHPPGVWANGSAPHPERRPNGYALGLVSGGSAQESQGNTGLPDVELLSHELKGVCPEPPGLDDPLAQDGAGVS
Description: Agonist activity against human adenosine A2A receptor assessed as calcium mobilization by FLIPR assay

[4] = target: T4, Adenosine receptor A1 (Homo sapiens, UniProt P30542)
T4 sequence (P30542 whole entry): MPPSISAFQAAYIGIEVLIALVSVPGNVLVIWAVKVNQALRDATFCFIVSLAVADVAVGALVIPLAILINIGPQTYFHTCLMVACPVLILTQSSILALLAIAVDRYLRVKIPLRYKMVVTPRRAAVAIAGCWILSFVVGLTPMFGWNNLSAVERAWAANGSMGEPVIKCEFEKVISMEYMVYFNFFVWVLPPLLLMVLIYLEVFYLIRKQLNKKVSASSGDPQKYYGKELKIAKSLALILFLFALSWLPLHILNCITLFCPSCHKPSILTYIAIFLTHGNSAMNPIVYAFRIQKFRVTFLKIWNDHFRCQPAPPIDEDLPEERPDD
Description: Displacement of [3H]CGS21680 from human adenosine A1 receptor

[5] = target: T3, Adenosine receptor A2a; remark: listed apart in the source
Description: Displacement of [3H]CGS21680 from human adenosine A2A receptor

[6] = tested on: Mus musculus; assay: Reversal of haloperidol-induced locomotor movement deficit in po dosed mouse assessed as minimum effective dose administered 15 mins before testing; details: read-out: MED
[7] = organism: Homo sapiens; assay: Selectivity for human adenosine A2A receptor over human adenosine A2B receptor
[8] = organism: Homo sapiens; assay: Selectivity for human adenosine A2A receptor over human adenosine A3 receptor
[9] = Inhibition of Cytochrome P450; assay type: ADME
[10] = tested on: Brain; assay: Drug uptake in Sprague-Dawley rat brain at 2 mg/kg, iv; assay type: ADME, organism-based; parameters: dose 2 mg/kg, route intravenous; details: in vivo
[11] = Aqueous solubility of the compound; assay type: physicochemical
[12] = Half life in po dosed Sprague-Dawley rat brain; assay type: ADME, organism-based
[13] = Half life in po dosed Sprague-Dawley rat plasma; assay type: ADME, organism-based
[14] = Tmax in Sprague-Dawley rat plasma; assay type: ADME, organism-based

| pKi [1] | pKi [2] | pEC50 [3] | pKi [4] | pKi [5] | SMILES | minimal effective dose [6] | other results |
| --- | --- | --- | --- | --- | --- | --- | --- |
| 5.91 | 5.73 | ≤ 5.00 | 6.99 | 8.02 | Cc1ccc(CNC(=O)c2cc(-c3ccco3)nc(N)n2)cc1 | – | – |
| – | – | – | 5.87 | 6.41 | Nc1nc(C(=O)NCc2ccncc2)cc(-c2ccco2)n1 | – | – |
| 6.92 | 5.96 | ≤ 5.00 | 7.33 | 8.21 | COc1cccc(CNC(=O)c2cc(-c3ccco3)nc(N)n2)c1 | – | – |
| 6.74 | 6.29 | ≤ 5.00 | 7.91 | 8.43 | Nc1nc(C(=O)NCc2cccc(Cl)c2)cc(-c2ccco2)n1 | – | – |
| – | – | – | 6.11 | 6.77 | COc1ccccc1C(=O)Nc1nc(N)nc(-c2ccco2)c1[N+](=O)[O-] | – | – |
| 6.35 | 5.83 | ≤ 5.00 | 6.88 | 8.15 | Nc1cccc(CNC(=O)c2cc(-c3ccco3)nc(N)n2)n1 | 1 mg/kg | – |
| 6.03 | 5.97 | ≤ 5.00 | 7.41 | 8.32 | Nc1nc(C(=O)NCc2cccc(F)c2)cc(-c2ccco2)n1 | – | – |
| 6.40 | 5.82 | ≤ 5.00 | 7.42 | 8.59 | Cc1cccc(CNC(=O)c2cc(-c3ccco3)nc(N)n2)c1 | 3 mg/kg | Ratio Ki [7]: < 1000; Ratio Ki [8]: < 1000 |
| 6.12 | 5.86 | – | – | – | Nc1nc(C(=O)NCc2ccccn2)cc(-c2ccco2)n1 | 3 mg/kg | – |
| 6.81 | 6.40 | ≤ 5.00 | 7.46 | 8.46 | COc1ccccc1CNC(=O)c1cc(-c2ccco2)nc(N)n1 | 20 mg/kg | – |
| 6.86 | 6.38 | ≤ 5.00 | 7.14 | 8.59 | Nc1nc(C(=O)NCc2ccccc2Cl)cc(-c2ccco2)n1 | 30 mg/kg | – |
| – | – | – | 6.80 | 7.10 | COc1ccc(CNC(=O)c2cc(-c3ccco3)nc(N)n2)cc1 | – | – |
| – | – | – | 5.45 | 6.66 | Nc1nc(NC(=O)c2cccnc2)c([N+](=O)[O-])c(-c2ccco2)n1 | – | – |
| – | – | – | 5.69 | 6.51 | Nc1nc(NC(=O)c2ccccc2)c([N+](=O)[O-])c(-c2ccco2)n1 | – | – |
| – | – | – | 6.51 | 7.64 | Nc1nc(NC(=O)c2ccccc2F)c([N+](=O)[O-])c(-c2ccco2)n1 | – | – |
| – | – | – | 6.59 | 8.03 | Nc1nc(C(=O)NCc2cccc(CO)n2)cc(-c2ccco2)n1 | 30 mg/kg | – |
| 6.07 | 6.07 | ≤ 5.00 | 7.24 | 8.12 | Nc1nc(C(=O)NCc2ccccc2)cc(-c2ccco2)n1 | – | – |
| – | – | – | – | – | CCn1c(=O)c2c(nc(/C=C/c3ccc(OC)c(OC)c3)n2C)n(CC)c1=O [ISTRADEFYLLINE] | 0.3 mg/kg | – |
| – | – | – | 5.70 | 6.82 | Nc1nc(NC(=O)c2ccncc2)c([N+](=O)[O-])c(-c2ccco2)n1 | – | – |
| – | – | – | 7.10 | 7.76 | Nc1nc(C(=O)NCc2ccc(Cl)cc2)cc(-c2ccco2)n1 | – | – |
| 7.17 | 6.47 | ≤ 5.00 | 7.27 | 8.46 | Nc1nc(C(=O)NCc2ccccc2F)cc(-c2ccco2)n1 | 30 mg/kg | – |
| – | – | – | 6.85 | 7.70 | Nc1nc(C(=O)NCc2ccc(F)cc2)cc(-c2ccco2)n1 | – | – |

| SMILES | pKi [1] | pKi [2] | pEC50 [3] | pKi [4] | pKi [5] | minimal effective dose [6] | other results |
| --- | --- | --- | --- | --- | --- | --- | --- |
| Nc1nc(C(=O)NCc2ccco2)cc(-c2ccco2)n1 | – | – | – | 6.67 | 7.85 | – | – |
| Nc1nc(NC(=O)c2ccccc2OC(F)(F)F)c([N+](=O)[O-])c(-c2ccco2)n1 | – | – | – | 6.53 | 7.80 | – | – |
| COc1ccccc1CC(=O)Nc1nc(N)nc(-c2ccco2)c1[N+](=O)[O-] | – | – | – | 6.05 | 8.00 | – | – |
| Cc1ccccc1CNC(=O)c1cc(-c2ccco2)nc(N)n1 | 6.04 | 6.23 | ≤ 5.00 | 7.14 | 8.66 | 30 mg/kg | – |
| Nc1nc(C(=O)NCc2cccnc2)cc(-c2ccco2)n1 | 5.23 | 5.19 | ≤ 5.00 | 6.91 | 8.03 | – | Ratio Ki [7]: < 1000; Ratio Ki [8]: < 1000 |
| COCc1cccc(CNC(=O)c2cc(-c3ccco3)nc(N)n2)n1 | 6.34 | 5.76 | ≤ 5.00 | 7.38 | 8.77 | 0.1 mg/kg | Activity [9]: Not Active; Ratio Ki [7]: < 1000; Ratio Ki [8]: < 1000; Drug uptake [10]: 85%; solubility [11]: 450 µM (≈ 153 µg/mL); half-life [12]: 1 h; half-life [13]: 1 h; Tmax [14]: 0.25 h |
